Data: the supplement of paper PMC8617591

Legend:
[1] = tested on: Mycobacterium tuberculosis Erdman (autoluminescent); assay: AUC25, normalised area under dose response up to IC25 (fraction (0-1)); higher = more potent at low dose
Method: (§1)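 DiaMOND equipotent two-drug combination dose responses against autoluminescent M. tuberculosis Erdman in 8 in vitro models. Read-out is OD600, or luminescence for the intracellular and dormancy models, normalised to untreated wells. Hill-fit Einf, AUC25 and GRinf are potency metrics; FIC50 and FIC90 are Loewe-additivity fractional inhibitory concentrations, given as log2 (negative = synergy). Replicates are averaged.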

[2] = tested on: Mycobacterium tuberculosis Erdman (autoluminescent); assay: Einf, fitted maximum growth inhibition of combination (fraction); higher = stronger maximal inhibition
Method: as §1

[3] = tested on: Mycobacterium tuberculosis Erdman (autoluminescent); assay: FIC90 (Loewe) at 90% inhibition (log2); higher = more antagonistic
Method: as §1

[4] = tested on: Mycobacterium tuberculosis Erdman (autoluminescent); assay: GRinf, maximum normalised growth rate inhibition (unitless (-1 to 1)); higher = less effect (negative = killing)
Method: as §1

[5] = tested on: Mycobacterium tuberculosis Erdman (autoluminescent); assay: FIC50 (Loewe) at 50% inhibition (log2); higher = more antagonistic
Method: as §1

COc1c(N2C[C@@H]3CCCN[C@@H]3C2)c(F)cc2c(=O)c(C(=O)O)cn(C3CC3)c12 [moxifloxacin] + O=[N+]([O-])c1cn2c(n1)OC[C@@H](OCc1ccc(OC(F)(F)F)cc1)C2 [pretomanid]
Conditions	AUC25, [1]	Einf, [2]	FIC50, [5]	FIC90, [3]	GRinf, [4]
in vitro model: acidic pH 5.7, time point: constant (~7 days, model-specific)	0.139	0.846	0.225	–	-0.773
in vitro model: acidic pH 5.7, time point: terminal (~4-5 doublings, model-specific)	0.107	0.976	-0.052	0.879	-0.428
in vitro model: intracellular J774, time point: constant = terminal	–	0.993	–	-0.156	-0.437

Conditions	AUC25, [1]	Einf, [2]	FIC50, [5]	FIC90, [3]	GRinf, [4]
in vitro model: butyrate, time point: constant (~7 days, model-specific)	0.0964	0.947	0.526	0.61	-0.0779
in vitro model: butyrate, time point: terminal (~4-5 doublings, model-specific)	0.0655	0.973	0.406	0.607	-0.07
in vitro model: cholesterol 0.05 mM, time point: constant (~7 days, model-specific)	0.119	0.751	0.221	–	-0.223
in vitro model: cholesterol 0.05 mM, time point: terminal (~4-5 doublings, model-specific)	0.105	0.938	0.248	0.691	-0.248
in vitro model: cholesterol-high 0.2 mM, time point: constant (~7 days, model-specific)	0.103	0.952	0.238	1.96	-0.404
in vitro model: cholesterol-high 0.2 mM, time point: terminal (~4-5 doublings, model-specific)	0.0655	1	0.457	0.364	-0.745
in vitro model: dormancy (butyrate + nitrate, low O2), time point: constant (~7 days, model-specific)	0.0724	0.898	0.568	0.524	0.165
in vitro model: dormancy (butyrate + nitrate, low O2), time point: terminal (~4-5 doublings, model-specific)	0.0602	0.96	0.607	0.936	-0.142
in vitro model: standard 7H9 glycerol, time point: constant = terminal	0.0929	0.978	-0.329	0.198	-0.166
in vitro model: valerate, time point: constant (~7 days, model-specific)	0.12	0.9	-0.0268	–	-0.302
in vitro model: valerate, time point: terminal (~4-5 doublings, model-specific)	0.102	0.968	-0.156	0.429	-0.0344

O=[N+]([O-])c1cn2c(n1)OC[C@@H](OCc1ccc(OC(F)(F)F)cc1)C2 [pretomanid] + CO[C@H]1/C=C/O[C@@]2(C)Oc3c(C)c(O)c4c(O)c(c(/C=N/N5CCN(C6CCCC6)CC5)c(O)c4c3C2=O)NC(=O)/C(C)=C\C=C\[C@H](C)[C@H](O)[C@@H](C)[C@@H](O)[C@@H](C)[C@H](OC(C)=O)[C@@H]1C [rifapentine]
Conditions	AUC25, [1]	Einf, [2]	FIC50, [5]	FIC90, [3]	GRinf, [4]
in vitro model: acidic pH 5.7, time point: constant (~7 days, model-specific)	0.101	0.925	0.285	–	-0.447
in vitro model: acidic pH 5.7, time point: terminal (~4-5 doublings, model-specific)	0.0525	0.991	0.359	0.243	-0.276
in vitro model: intracellular J774, time point: constant = terminal	–	0.991	–	-0.454	-0.347

Conditions	AUC25, [1]	Einf, [2]	FIC50, [5]	FIC90, [3]	GRinf, [4]
in vitro model: butyrate, time point: constant (~7 days, model-specific)	0.0925	0.929	0.307	0.357	-0.0285
in vitro model: butyrate, time point: terminal (~4-5 doublings, model-specific)	0.0679	0.963	0.223	0.114	-0.0133
in vitro model: cholesterol 0.05 mM, time point: constant (~7 days, model-specific)	0.114	0.732	0.253	–	-0.354
in vitro model: cholesterol 0.05 mM, time point: terminal (~4-5 doublings, model-specific)	0.0965	0.93	0.285	1.63	-0.257
in vitro model: cholesterol-high 0.2 mM, time point: constant (~7 days, model-specific)	0.0774	0.911	0.634	–	-0.247
in vitro model: cholesterol-high 0.2 mM, time point: terminal (~4-5 doublings, model-specific)	0.0546	0.979	0.806	0.721	-0.463
in vitro model: dormancy (butyrate + nitrate, low O2), time point: constant (~7 days, model-specific)	0.0571	0.904	0.527	0.277	0.192
in vitro model: dormancy (butyrate + nitrate, low O2), time point: terminal (~4-5 doublings, model-specific)	0.0438	0.983	0.383	0.448	-0.148
in vitro model: standard 7H9 glycerol, time point: constant = terminal	0.0697	0.928	-0.158	0.519	0.0428
in vitro model: valerate, time point: constant (~7 days, model-specific)	0.127	0.892	0.377	–	-0.0483
in vitro model: valerate, time point: terminal (~4-5 doublings, model-specific)	0.0738	0.954	0.21	0.484	-0.107

O=[N+]([O-])c1cn2c(n1)OC[C@@H](OCc1ccc(OC(F)(F)F)cc1)C2 [pretomanid] + CO[C@H]1/C=C/O[C@@]2(C)Oc3c(C)c(O)c4c(O)c(c(/C=N/N5CCN(C)CC5)c(O)c4c3C2=O)NC(=O)/C(C)=C\C=C\[C@H](C)[C@H](O)[C@@H](C)[C@@H](O)[C@@H](C)[C@H](OC(C)=O)[C@@H]1C [rifampicin]
Conditions	AUC25, [1]	Einf, [2]	FIC50, [5]	FIC90, [3]	GRinf, [4]
in vitro model: acidic pH 5.7, time point: constant (~7 days, model-specific)	0.106	0.944	0.259	–	-0.224
in vitro model: acidic pH 5.7, time point: terminal (~4-5 doublings, model-specific)	0.0463	0.985	0.545	-0.025	-0.239
in vitro model: intracellular J774, time point: constant = terminal	–	0.966	–	-0.863	-0.281

Conditions	AUC25, [1]	Einf, [2]	FIC50, [5]	FIC90, [3]	GRinf, [4]
in vitro model: butyrate, time point: constant (~7 days, model-specific)	0.0943	0.915	0.189	-0.398	0.00239
in vitro model: butyrate, time point: terminal (~4-5 doublings, model-specific)	0.0817	0.966	-0.0797	-0.223	-0.0223
in vitro model: cholesterol 0.05 mM, time point: constant (~7 days, model-specific)	0.108	0.691	0.468	–	-0.0815
in vitro model: cholesterol 0.05 mM, time point: terminal (~4-5 doublings, model-specific)	0.0829	0.905	0.242	-0.715	-0.0976
in vitro model: cholesterol-high 0.2 mM, time point: constant (~7 days, model-specific)	0.0743	0.902	0.509	0.733	-0.211
in vitro model: cholesterol-high 0.2 mM, time point: terminal (~4-5 doublings, model-specific)	0.0653	1	0.521	0.306	-0.595
in vitro model: dormancy (butyrate + nitrate, low O2), time point: constant (~7 days, model-specific)	0.0843	0.942	0.23	-0.00861	0.0579
in vitro model: dormancy (butyrate + nitrate, low O2), time point: terminal (~4-5 doublings, model-specific)	0.0526	0.986	0.0748	0.236	-0.16
in vitro model: standard 7H9 glycerol, time point: constant = terminal	0.0517	0.912	-0.316	-1.42	0.0474
in vitro model: valerate, time point: constant (~7 days, model-specific)	0.104	0.877	0.152	–	0.0588
in vitro model: valerate, time point: terminal (~4-5 doublings, model-specific)	0.0482	0.943	0.504	-0.0514	0.0666
